{
  "source": "patent US20100273876A1",
  "about": "“ANTIBACTERIAL FORMULATION COMPRISING A DIALKYL SULPHOSUCCINATE AND A CARBANILIDE ANTIBACTERIAL AGENT” (priority 2007, published 2010)",
  "assay_in_all_cases": "(S)DDA disc diffusion",
  "key": {"E. faecalis ATCC 29212": {"tested_on": "E. faecalis ATCC 29212", "assay_type": "cell-based, Enterococcus faecalis", "conditions": "200 μg per disc", "procedure": "(§1) A sterile paper disc was impregnated with a sample of the test compound in a suitable solvent and 30 minutes allowed for the solvents to evaporate (where possible). The disc was then placed on an agar plate onto which the test micro-organism had been inoculated. The plate was then incubated under the conditions described above, following which it was examined visually for signs of microbial growth. If the test compound had antimicrobial activity, a circular zone of no growth would be obtained around the disc. The diameter of this zone of “inhibition” was measured using a ProtoCOL™ automated zone sizer (Synbiosis, Cambridge, UK). In general, a greater diameter and/or area of the zone of inhibition indicates a greater antimicrobial activity in the relevant test compound, although other factors such as test compound mobility through the agar gel may also influence the result.\nTwo test a compounds A and B were placed on a single paper disc and the above described DDA procedure repeated. […]\nThe activities of DOSS and TCC were determined, using (S)DDAs, against a panel of further test micro-organisms, namely B. cereus ATCC 11778, Bact. fragilis ATCC 25285, Clost. difficile […] and E. faecalis ATCC 29212. […]"}, "C. xerosis NCTC 11861": {"tested_on": "C. xerosis NCTC 11861", "assay_type": "cell-based, Corynebacterium xerosis", "conditions": "for DDA: 200 μg per disc", "procedure": "Several Corynebacterium test species were also used in this study, namely C. mucifaciens ATCC 700355, C. striatum NCTC 764, C. xerosis NCTC 11861 and C. jeikeium NCTC 11915. These Gram-positive pathogens are closely related to organisms (aerobic diphtheroids of the genus Corynebacterium) that cause body odour. C. mucifaciens and C. striatum were cultured and maintained on Mueller-Hinton Medium (agar and broth) and were incubated aerobically at 37° C. for 24 hours. C. xerosis and C. jeikeium were cultured and maintained on Mueller-Hinton Medium containing 5% (v/v) lysed horse blood (agar and broth) and were incubated aerobically at 37° C. for 72 hours. A sterile paper disc was impregnated with a sample of the test compound in a suitable solvent and 30 minutes allowed for the solvents to evaporate (where possible). The disc was then placed on an agar plate onto which the test micro-organism had been inoculated. The plate was then incubated under the conditions described above, following which it was examined visually for signs of microbial growth. If the test compound had antimicrobial activity, a circular zone of no growth would be obtained around the disc. The diameter of this zone of “inhibition” was measured using a ProtoCOL™ automated zone sizer (Synbiosis, Cambridge, UK). In general, a greater diameter and/or area of the zone of inhibition indicates a greater antimicrobial activity in the relevant test compound, although other factors such as test compound mobility through the agar gel may also influence the result. Two test a compounds A and B were placed on a single paper disc and the above described DDA procedure repeated. An increase in diameter of the zone of inhibition, compared to the greater of the zone diameters for the two compounds individually, was taken to indicate potential antimicrobial synergy. In practical terms, an increase of greater than 5 mm could be treated as significant. The activities of DOSS and TCC were determined, using (S)DDAs, against the test organisms C. mucifaciens ATCC 700355, C. striatum NCTC 764, C. xerosis NCTC 11861 and C. jeikeium NCTC 11915. 200 μg of the DOSS and/or the TCC were loaded onto each disc. All the experiments were conducted in triplicate."}, "[1]": {"tested_on": "Por. gingivalis NCTC 11834", "assay_type": "cell-based, Porphyromonas gingivalis", "conditions": "for DDA: 200 μg per disc", "procedure": "The P. gingivalis strains were cultured and maintained on Wilkins-Chalgren Anaerobe Medium (agar and broth) at pH 7.0; all cultures were incubated anaerobically at 37° C. for 5-7 days.\nas §1\n(§2) Two test a compounds A and B were placed on a single paper disc and the above described DDA procedure repeated. An increase in diameter of the zone of inhibition, compared to the greater of the zone diameters for the two compounds individually, was taken to indicate potential antimicrobial synergy. In practical terms, an increase of greater than 5 mm could be treated as significant.\nFor the (S)DDA experiments; 200 μg of the DOS salts and/or the TCC were loaded onto each disc for Por. gingivalis experiments. For the Strep. mutans experiments, 200 μg of the TCC and 50 μg of DOSS were used on each disc. All the experiments were conducted in triplicate."}, "P. granulosum PRP-043": {"tested_on": "P. granulosum PRP-043", "assay_type": "cell-based, Propionibacterium granulosum", "procedure": "(§3) The propionibacteria were cultured and maintained on Wilkins-Chalgren Anaerobe Medium (agar and broth) at pH 6.0; all cultures were incubated anaerobically at 37° C. for 72 hours.\nas §1, §2\n(§4) Both the DDA and the SDDA test may be carried out using an agar gel supplemented with lipid and/or salt to simulate some of the major components present in human skin and to assess whether these substances might reduce the antimicrobial activity observed for the test compound. Performance under these conditions can provide a more reliable indication of activity on topical application. The supplements used in Examples 1, 11, 12 and 13 below were lipid (either Tween™ 80 at 1% v/v (Example 1) or triolein at 1% v/v (Examples 11, 12 and 13) and sodium chloride (100 mM)."}, "P. granulosum PRP-006": {"tested_on": "P. granulosum PRP-006", "assay_type": "cell-based, Propionibacterium granulosum", "procedure": "as §3, §1, §2, §4"}, "P. granulosum PRP-021": {"tested_on": "P. granulosum PRP-021", "assay_type": "cell-based, Propionibacterium granulosum", "procedure": "as §3, §1, §2, §4"}, "P. granulosum PRP-044": {"tested_on": "P. granulosum PRP-044", "assay_type": "cell-based, Propionibacterium granulosum", "procedure": "as §3, §1, §2, §4"}, "P. granulosum PRP-005": {"tested_on": "P. granulosum PRP-005", "assay_type": "cell-based, Propionibacterium granulosum", "procedure": "as §3, §1, §2, §4"}, "EMRSA 15": {"tested_on": "EMRSA 15", "assay_type": "cell-based, Staphylococcus aureus", "conditions": "200 μg per disc", "procedure": "as §1, §2\n(§5) The activities of DOSS and TCC against S. aureus ATCC 29213 and EMRSA 15 were determined using (S)DDAs as described above. 200 μg of the DOSS and/or the TCC were loaded onto each disc. All the experiments were conducted in triplicate."}, "S. aureus ATCC 29213": {"tested_on": "S. aureus ATCC 29213", "assay_type": "cell-based, Staphylococcus aureus", "conditions": "200 μg per disc", "procedure": "as §1, §2, §5"}, "[2]": {"conditions": "P. granulosum PRP-043 (MLS), 200 μg TCC or 50 μg DOSS per disc"}, "[3]": {"conditions": "P. granulosum PRP-006 (MLS), 200 μg TCC or 50 μg DOSS per disc"}, "[4]": {"conditions": "P. granulosum PRP-021 (MLS), 200 μg TCC or 50 μg DOSS per disc"}, "[5]": {"conditions": "P. granulosum PRP-044 (MLS), 200 μg TCC or 50 μg DOSS per disc"}, "[6]": {"conditions": "P. granulosum PRP-005 (MLSK), 200 μg TCC or 50 μg DOSS per disc"}},
  "data": [
    {"compound": "dioctyl sodium sulphosuccinate [DOSS]", "values": [
      {"measurement": "DDA", "setting": "E. faecalis ATCC 29212", "result": 10.31, "unit": "mm"},
      {"measurement": "SDDA area increase", "setting": "C. xerosis NCTC 11861", "result": 145.4, "unit": "%"},
      {"measurement": "SDDA increase", "setting": "C. xerosis NCTC 11861", "result": 6.6, "unit": "mm"},
      {"measurement": "SDDA with TCC", "setting": "C. xerosis NCTC 11861; 200 μg DOSS + 200 μg TCC on one disc", "result": 18.25, "unit": "mm"},
      {"measurement": "DDA", "setting": "C. xerosis NCTC 11861", "result": 0.0, "unit": "mm"},
      {"measurement": "SDDA area increase", "setting": "[1]", "result": 54.34, "unit": "%"},
      {"measurement": "SDDA increase", "setting": "[1]", "result": 12.39, "unit": "mm"},
      {"measurement": "SDDA with TCC", "setting": "[1]; 200 μg DOS salt + 200 μg TCC on one disc", "result": 63.52, "unit": "mm"},
      {"measurement": "DDA", "setting": "[1]", "result": 51.13, "unit": "mm"},
      {"measurement": "DDA", "setting": "P. granulosum PRP-043; [2]", "result": 8.94, "unit": "mm"},
      {"measurement": "DDA", "setting": "P. granulosum PRP-043; P. granulosum PRP-043, 200 μg per disc", "result": 40.16, "unit": "mm"},
      {"measurement": "DDA + salt", "setting": "P. granulosum PRP-043; P. granulosum PRP-043, 200 μg per disc, sodium chloride 100 mM", "result": 35.80, "unit": "mm"},
      {"measurement": "DDA + lipid", "setting": "P. granulosum PRP-043; P. granulosum PRP-043, 200 μg per disc, triolein 1% v/v", "result": 35.18, "unit": "mm"},
      {"measurement": "DDA", "setting": "P. granulosum PRP-006; [3]", "result": 19.01, "unit": "mm"},
      {"measurement": "DDA", "setting": "P. granulosum PRP-006; P. granulosum PRP-006, 200 μg per disc", "result": 40.47, "unit": "mm"},
      {"measurement": "DDA + salt", "setting": "P. granulosum PRP-006; P. granulosum PRP-006, 200 μg per disc, sodium chloride 100 mM", "result": 41.09, "unit": "mm"},
      {"measurement": "DDA + lipid", "setting": "P. granulosum PRP-006; P. granulosum PRP-006, 200 μg per disc, triolein 1% v/v", "result": 40.16, "unit": "mm"},
      {"measurement": "DDA", "setting": "P. granulosum PRP-021; [4]", "result": 0.00, "unit": "mm"},
      {"measurement": "DDA", "setting": "P. granulosum PRP-021; P. granulosum PRP-021, 200 μg per disc", "result": 39.53, "unit": "mm"},
      {"measurement": "DDA + salt", "setting": "P. granulosum PRP-021; P. granulosum PRP-021, 200 μg per disc, sodium chloride 100 mM", "result": 38.60, "unit": "mm"},
      {"measurement": "DDA + lipid", "setting": "P. granulosum PRP-021; P. granulosum PRP-021, 200 μg per disc, triolein 1% v/v", "result": 42.02, "unit": "mm"},
      {"measurement": "DDA", "setting": "P. granulosum PRP-044; [5]", "result": 0.00, "unit": "mm"},
      {"measurement": "DDA", "setting": "P. granulosum PRP-044; P. granulosum PRP-044, 200 μg per disc", "result": 38.29, "unit": "mm"},
      {"measurement": "DDA + salt", "setting": "P. granulosum PRP-044; P. granulosum PRP-044, 200 μg per disc, sodium chloride 100 mM", "result": 37.67, "unit": "mm"},
      {"measurement": "DDA + lipid", "setting": "P. granulosum PRP-044; P. granulosum PRP-044, 200 μg per disc, triolein 1% v/v", "result": 35.49, "unit": "mm"},
      {"measurement": "DDA", "setting": "P. granulosum PRP-005; [6]", "result": 26.31, "unit": "mm"},
      {"measurement": "DDA", "setting": "P. granulosum PRP-005; P. granulosum PRP-005, 200 μg per disc", "result": 42.96, "unit": "mm"},
      {"measurement": "DDA + salt", "setting": "P. granulosum PRP-005; P. granulosum PRP-005, 200 μg per disc, sodium chloride 100 mM", "result": 46.38, "unit": "mm"},
      {"measurement": "DDA + lipid", "setting": "P. granulosum PRP-005; P. granulosum PRP-005, 200 μg per disc, triolein 1% v/v", "result": 40.47, "unit": "mm"},
      {"measurement": "DDA", "setting": "EMRSA 15", "result": 12.42, "unit": "mm"},
      {"measurement": "DDA", "setting": "S. aureus ATCC 29213", "result": 12.22, "unit": "mm"}
    ]},
    {"compound": "O=C(Nc1ccc(Cl)cc1)Nc1ccc(Cl)c(Cl)c1", "note": "[TCC, N-(4-chlorophenyl)-N′-(3,4-dichlorophenyl) urea]", "values": [
      {"measurement": "DDA", "setting": "E. faecalis ATCC 29212", "result": 9.68, "unit": "mm"},
      {"measurement": "DDA", "setting": "C. xerosis NCTC 11861", "result": 11.65, "unit": "mm"},
      {"measurement": "DDA", "setting": "[1]", "result": 23.73, "unit": "mm"},
      {"measurement": "DDA", "setting": "P. granulosum PRP-043; [2]", "result": 8.84, "unit": "mm"},
      {"measurement": "DDA", "setting": "P. granulosum PRP-006; [3]", "result": 10.17, "unit": "mm"},
      {"measurement": "DDA", "setting": "P. granulosum PRP-021; [4]", "result": 0.00, "unit": "mm"},
      {"measurement": "DDA", "setting": "P. granulosum PRP-044; [5]", "result": 0.00, "unit": "mm"},
      {"measurement": "DDA", "setting": "P. granulosum PRP-005; [6]", "result": 12.13, "unit": "mm"},
      {"measurement": "DDA", "setting": "EMRSA 15", "result": 12.42, "unit": "mm"},
      {"measurement": "DDA", "setting": "S. aureus ATCC 29213", "result": 12.84, "unit": "mm"}
    ]}
  ]
}
